The values below come from PubChem BioAssay (NCI).

Structures are written as SMILES.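 In this assay, cells in 96-well plates receive the compound at five concentrations for 48 hours. Endpoints are linearly interpolated between the surrounding concentrations. GI50: concentration for 50% inhibition of growth. The concentration for full growth arrest is given as TGI.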

Test systems include NCI-H23 lung; SK-MEL-2 melanoma; NCI-H460 lung; U251 CNS; EKVX NSCLC; RXF 393 renal; LOX IMVI melanoma; HCC-2998 colon; SW-620 colon.
Assay in all cases: NCI anticancer screen, dose series, 48 h

Turning to `COc1cc2c(cc1OC)[C@@H](C(O)c1ccccc1)NCC2` (some centres undefined), the TGI with NCI-H23 lung, with SK-MEL-2 melanoma, in the assay with NCI-H460 lung, in the assay with U251 CNS, in the assay on EKVX NSCLC and with RXF 393 renal was over 100 µM each time. Besides, the TGI in the assay with LOX IMVI melanoma, in the assay with HCC-2998 colon and with SW-620 colon was over 100 µM throughout.
Consider `CC[O-].CC[O-].O=Nc1ccc2cc([O-])ccc2c1.O=Nc1ccc2cc([O-])ccc2c1.[Ti+4]`, for which the GI50 was 1.46 µM with NCI-H23 lung; 2.13 µM in the assay with SK-MEL-2 melanoma; 3.1 µM in the assay on NCI-H460 lung; 1.77 µM with U251 CNS; 3.77 µM in the assay with EKVX NSCLC; 1.66 µM in the assay with LOX IMVI melanoma. Further, the GI50 in the assay with HCC-2998 colon was 3.3 µM; with SW-620 colon, 1.97 µM. Also, the TGI in the assay with NCI-H23 lung was 3.19 µM; in the assay on SK-MEL-2 melanoma, 4.75 µM; with NCI-H460 lung, over 100 µM; with U251 CNS, 3.48 µM; in the assay with EKVX NSCLC it was 11.8 µM; in the assay with LOX IMVI melanoma, 4.14 µM. Moreover, the TGI was 14.2 µM with HCC-2998 colon and 4.06 µM with SW-620 colon.
Consider `COc1ccc(/C=C2\CNC/C(=C\c3ccc(OC)cc3)C2=O)cc1`, for which the TGI in the assay with NCI-H23 lung was 60.1 µM; with SK-MEL-2 melanoma, over 100 µM; in the assay on NCI-H460 lung it was over 100 µM; with U251 CNS, over 100 µM; with EKVX NSCLC it was over 100 µM; with RXF 393 renal, 53.8 µM. Also, the TGI was 21.1 µM in the assay on LOX IMVI melanoma, over 100 µM in the assay on HCC-2998 colon and over 100 µM with SW-620 colon.
Turning to `Clc1cc(Cl)cc(N2N=C(c3cccc(Nc4ccncc4)c3)CC2c2ccc(Br)cc2)c1` (centres undefined), the GI50 is 1.79 µM in the assay with NCI-H23 lung; 1.81 µM with NCI-H460 lung; 1.6 µM in the assay with EKVX NSCLC; 1.7 µM with LOX IMVI melanoma; 1.77 µM with HCC-2998 colon; 1.61 µM with SW-620 colon. Further, the TGI stood at 3.41 µM with NCI-H23 lung; 3.51 µM with NCI-H460 lung; 3.2 µM in the assay with EKVX NSCLC; 3.06 µM in the assay with LOX IMVI melanoma; 3.2 µM with HCC-2998 colon; 3.04 µM with SW-620 colon.
Turning to `COc1ccc(C=NC23CC4CC(CC(C4)C2)C3)cc1`, the TGI in the assay on NCI-H23 lung, with SK-MEL-2 melanoma, in the assay with NCI-H460 lung, in the assay on U251 CNS, in the assay with EKVX NSCLC and in the assay with RXF 393 renal was over 100 µM throughout. For the same molecule, the TGI in the assay on LOX IMVI melanoma, in the assay with HCC-2998 colon and in the assay on SW-620 colon was over 100 µM throughout.
As for `CN(C)c1ccc(/C=C2\N=C(c3ccc(N)cc3)OC2=O)cc1`, the TGI in the assay on NCI-H23 lung, in the assay on SK-MEL-2 melanoma, in the assay on NCI-H460 lung, in the assay with U251 CNS, in the assay with EKVX NSCLC and with LOX IMVI melanoma was over 100 µM in each case. Moreover, the TGI in the assay on HCC-2998 colon and with SW-620 colon was over 100 µM in each case.
Regarding `CCN(CC)C(=S)N/N=C(\C)c1ccccc1O`, the TGI was over 100 µM with NCI-H23 lung; 80.7 µM in the assay on SK-MEL-2 melanoma; 97.4 µM with NCI-H460 lung; 89 µM with U251 CNS; over 100 µM in the assay on EKVX NSCLC; over 100 µM in the assay with RXF 393 renal. For the same molecule, the TGI with LOX IMVI melanoma was 77.4 µM; with HCC-2998 colon, over 100 µM; in the assay with SW-620 colon, over 100 µM.
`COc1ccc2nc(NC(=O)C(=O)CC(=O)c3ccc(Cl)cc3)sc2c1`: the TGI with NCI-H23 lung, with SK-MEL-2 melanoma, in the assay with NCI-H460 lung, in the assay with U251 CNS, with EKVX NSCLC and in the assay with RXF 393 renal was over 100 µM throughout. The TGI in the assay on HCC-2998 colon and with SW-620 colon was over 100 µM each time.
In the case of `Cc1c(C(=O)CC(=O)C(=O)Nc2cccc(C(F)(F)F)c2)[n+](=O)c2ccccc2n1[O-]`, the TGI in the assay with NCI-H23 lung turned out to be 40.5 µM; with SK-MEL-2 melanoma it was 18.5 µM; in the assay on NCI-H460 lung, 8.5 µM; in the assay with U251 CNS, 11 µM; with EKVX NSCLC, 20.3 µM; with RXF 393 renal it was 39.5 µM. For the same molecule, the results for the TGI in the assay on LOX IMVI melanoma, in the assay with HCC-2998 colon and with SW-620 colon were 12.7 µM, 16.1 µM and 12.2 µM, respectively.
As for `CC(C)(C)C(=O)C(c1ccc(-c2cscn2)cc1)c1ccc(-c2cscn2)cc1`, the TGI in the assay with NCI-H23 lung is over 100 µM; in the assay with SK-MEL-2 melanoma, 68.5 µM; in the assay on NCI-H460 lung, over 100 µM; in the assay with U251 CNS it was over 60.8 µM; in the assay on EKVX NSCLC, over 100 µM; in the assay with RXF 393 renal, 54.7 µM. Also, the TGI with LOX IMVI melanoma, with HCC-2998 colon and in the assay with SW-620 colon was over 100 µM in each case.
Take `CC(=O)O[C@@H]1CC(C)C2CC2C2=C(C(O)OC2O)[C@@H]1C(C)CCC=C(C)C` (some centres undefined): the TGI is 55.4 µM in the assay on NCI-H23 lung; over 100 µM in the assay with SK-MEL-2 melanoma; 38.3 µM in the assay with NCI-H460 lung; 41.1 µM in the assay with U251 CNS; over 100 µM in the assay with EKVX NSCLC; 34.8 µM with RXF 393 renal. The TGI worked out at 40.9 µM in the assay on LOX IMVI melanoma, 40.5 µM in the assay with HCC-2998 colon and 51.2 µM in the assay with SW-620 colon.
As to `O=C(O)c1ccc([N+](=O)[O-])c2c(=O)c3ccccc3[nH]c12`, the TGI in the assay with SK-MEL-2 melanoma, in the assay with NCI-H460 lung, with U251 CNS, with RXF 393 renal, in the assay on LOX IMVI melanoma and in the assay with HCC-2998 colon was over 100 µM throughout. The same molecule showed a TGI with SW-620 colon of over 100 µM.
Consider `Cc1nc(Nc2ccc(F)c(Cl)c2)sc1C(=O)O`, for which the GI50 with SK-MEL-2 melanoma was 1.97 µM; with NCI-H460 lung, 2.07 µM; in the assay with U251 CNS it was 1.44 µM; in the assay with EKVX NSCLC, 0.865 µM; with RXF 393 renal, 1.71 µM; in the assay with LOX IMVI melanoma, 1.51 µM. In addition, in the assay with SW-620 colon, the GI50 is 2.32 µM. Also, the TGI with SK-MEL-2 melanoma worked out at 3.8 µM; in the assay with NCI-H460 lung, 4.74 µM; in the assay with U251 CNS, 3.04 µM; in the assay with EKVX NSCLC it was 5.76 µM; in the assay with RXF 393 renal, 3.94 µM; in the assay with LOX IMVI melanoma, 2.91 µM. The TGI in the assay on SW-620 colon came out at 6.31 µM.
As to `CNS(=O)(=O)NN(C)S(=O)(=O)c1ccc(Br)cc1`, the TGI with NCI-H23 lung, in the assay on SK-MEL-2 melanoma, with U251 CNS, in the assay with EKVX NSCLC, in the assay with RXF 393 renal and in the assay with LOX IMVI melanoma was over 100 µM in each case. Further, the TGI in the assay with HCC-2998 colon and with SW-620 colon was over 100 µM throughout.
In the case of `CC(=O)OC[C@@H]1[C@H]2CC(=O)O[C@H]2C[C@H]1OC(C)=O`, the TGI with NCI-H460 lung, in the assay on U251 CNS, with EKVX NSCLC, with RXF 393 renal, in the assay with LOX IMVI melanoma and with HCC-2998 colon was over 100 µM in each case. The same molecule came in with a TGI with SW-620 colon of over 100 µM.
As for `O=C1NC2(O)c3ccccc3C(=O)C2(O)N1c1ccccc1` (centres undefined), the TGI in the assay on NCI-H23 lung, with SK-MEL-2 melanoma, in the assay on NCI-H460 lung, in the assay on U251 CNS, with EKVX NSCLC and in the assay with LOX IMVI melanoma was over 100 µM in each case. Moreover, the TGI with HCC-2998 colon and in the assay with SW-620 colon was over 100 µM throughout.
Regarding `Cc1nn2c(/C=C3/C(=O)Nc4ccccc43)c(-c3ccc(Cl)cc3)nc2s1`, the GI50 with SK-MEL-2 melanoma was over 50 µM; with NCI-H460 lung, 22.1 µM; with U251 CNS, 9.73 µM; in the assay on EKVX NSCLC it was 20.3 µM; with RXF 393 renal it was 14.1 µM; with LOX IMVI melanoma, 10.6 µM. In the assay with SW-620 colon, the GI50 was over 50 µM. The TGI in the assay on SK-MEL-2 melanoma is over 50 µM; in the assay on NCI-H460 lung it was over 50 µM; with U251 CNS it was 18.7 µM; with EKVX NSCLC, over 50 µM; with RXF 393 renal, 42.8 µM; in the assay on LOX IMVI melanoma, 21.4 µM. The molecule also showed a TGI in the assay with SW-620 colon of over 50 µM.
For `CCOC(=O)NC(=O)c1cn(CCCOC(=O)CCCCCCCCC(=O)OCCCn2cc(C(=O)NC(=O)OCC)c(=O)[nH]c2=O)c(=O)[nH]c1=O`, the TGI was over 100 µM in the assay on NCI-H460 lung; 41.4 µM in the assay on U251 CNS; over 100 µM in the assay with EKVX NSCLC; over 100 µM with LOX IMVI melanoma; 44.8 µM in the assay with HCC-2998 colon; 60.3 µM in the assay with SW-620 colon.
For the molecule `O=Cc1[nH]c2ccccc2c1Br`, the TGI is 87.8 µM in the assay on NCI-H23 lung; 31.2 µM in the assay on SK-MEL-2 melanoma; 51.1 µM with U251 CNS; over 100 µM in the assay on EKVX NSCLC; 67.8 µM in the assay with RXF 393 renal; 75.7 µM with LOX IMVI melanoma. For the same molecule, the TGI in the assay with HCC-2998 colon and in the assay on SW-620 colon was over 100 µM each time.
For the molecule `O=C(N/N=C/c1cc(Br)cc(Br)c1[O-])c1ccccc1O.O=C(N/N=C/c1cc(Br)cc(Br)c1[O-])c1ccccc1O.[Mn+2]`, the TGI with SK-MEL-2 melanoma is 22.3 µM; with NCI-H460 lung, 13.9 µM; in the assay on U251 CNS it was 14.8 µM; with EKVX NSCLC it was 34.6 µM; in the assay on RXF 393 renal, 28.4 µM; with HCC-2998 colon it was 25.9 µM. The molecule further displayed a TGI in the assay with SW-620 colon of 24.1 µM.
Take `N#CC1(c2nc3ccccc3o2)C(=O)C(=O)N(c2ccc(Cl)c(Cl)c2)C(=O)C1=O`: the TGI in the assay on NCI-H23 lung, with SK-MEL-2 melanoma, in the assay on NCI-H460 lung, in the assay with EKVX NSCLC, in the assay with RXF 393 renal and in the assay with LOX IMVI melanoma was over 100 µM in each case. The TGI in the assay with HCC-2998 colon and in the assay with SW-620 colon was over 100 µM throughout.
